Values after ≈ are worked out from the molar mass of the structure shown. Where two headings read alike, the source gives them in different places. One block for each molecule: values may come before it.
Columns and labels:
[1] = Solubility experiment (HPLC, external standard); format: physicochemical; conditions: 37 °C, 24 h
In short: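 Solid compound (about 1 mg per 1 mL medium) was shaken at 37 °C for 24 h in pH 1.2, 4.5 or 7.4 media, then centrifuged and the supernatant diluted with acetonitrile/water 50/50. Concentration in μg/mL was found by HPLC against an external standard prepared from a DMSO stock.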

[2] = target: KRAS G12V-cRAF (Homo sapiens, UniProt P01116+P62937, G12V); experiment: Assay for binding of KRAS to cRAF (HTRF, with Cyclophilin A), KRAS G12V
Chain of KRAS G12V-cRAF (P01116 1-188 isoform P01116-2 G12V): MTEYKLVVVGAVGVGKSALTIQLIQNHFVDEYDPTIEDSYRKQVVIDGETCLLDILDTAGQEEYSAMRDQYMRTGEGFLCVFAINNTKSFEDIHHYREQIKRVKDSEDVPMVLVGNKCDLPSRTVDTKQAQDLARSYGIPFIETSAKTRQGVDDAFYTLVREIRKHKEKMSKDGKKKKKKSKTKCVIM
Chain of KRAS G12V-cRAF (P62937 whole entry): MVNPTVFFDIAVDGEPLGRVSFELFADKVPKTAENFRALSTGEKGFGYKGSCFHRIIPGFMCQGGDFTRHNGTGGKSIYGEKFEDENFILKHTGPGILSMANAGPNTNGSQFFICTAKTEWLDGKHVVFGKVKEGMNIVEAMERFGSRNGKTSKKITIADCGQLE
Method: (§3) The plate was centrifuged at 1000 rpm for 1 min and then incubated in the thermostatic incubator at 20 °C for 30 min. […] The plate was centrifuged at 1000 rpm for 1 min and then incubated in the thermostatic incubator at 20 °C for 60 min. […] The working solution was added to the aforementioned assay plate at 5 µL/well. The plate was centrifuged at 1000 rpm for 1 min and then incubated in the thermostatic incubator at 20 °C for 60 min.

[3] = target: KRAS WT-cRAF (Homo sapiens, UniProt P01116+P62937); experiment: Assay for binding of KRAS to cRAF (HTRF, with Cyclophilin A), KRAS WT
Chain of KRAS WT-cRAF (P01116 1-188 isoform P01116-2): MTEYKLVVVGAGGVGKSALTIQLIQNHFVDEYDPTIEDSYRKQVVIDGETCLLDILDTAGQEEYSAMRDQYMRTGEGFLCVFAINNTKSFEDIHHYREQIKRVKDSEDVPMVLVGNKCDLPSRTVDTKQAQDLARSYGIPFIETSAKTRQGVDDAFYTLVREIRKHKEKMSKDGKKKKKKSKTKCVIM
Chain of KRAS WT-cRAF (P62937 whole entry): as the sequence (P62937 whole entry) above
Method: as §3

[4] = Human liver microsomal stability experiment; format: in vitro ADME; conditions: human liver microsomes; for half-life / half-life at 1 µM / T1/2: NADPH, 37 °C; for CLint scaled: 45 mg/g, 20.7 g/kg scaling
Method: This experiment was intended to investigate the metabolic stability of the test compounds in human liver microsomes. The materials used in the experiment included 10 mM solutions of the test compounds and the control sample, human liver microsomes, and reduced nicotinamide adenine dinucleotide phosphate (NADPH) powder. In the experiment, a 100 mM potassium phosphate buffer was used as the buffer system.
The liver microsome working solution was prepared by diluting the liver microsome stock solution to 0.75 mg/mL using the 100 mM potassium phosphate buffer. Then, 5 µL of the 10 mM stock solution of the test compound was taken, and 195 µL of methanol was added. The mixture was well mixed to prepare a working solution A with a concentration of 0.25 mM. Subsequently, the working solution A was diluted to 1.5 µM using the liver microsome working solution to prepare a compound-liver microsome mixed solution. Additionally, NADPH powder was dissolved in 100 mM potassium phosphate buffer to prepare a 6 mM NADPH solution. The compound-liver microsome mixed solution was dispensed into a 96-well plate at 30 µL/well, with labeled time points of 0 min, 30 min, and 60 min. For 0-min samples, 180 µL of acetonitrile containing 100 ng/mL tolbutamide and 15 µL of the NADPH solution were added directly. The 96-well plate and the NADPH solution were then preheated under a 37 °C water bath for 5 min. After the preheating, 15 µL of the NADPH solution was added to each of the 30-min and 60-min sample wells. The plate was gently shaken for mixing and then incubated under the 37 °C water bath for the corresponding time. After the incubation was completed, 180 µL of acetonitrile containing 100 ng/mL tolbutamide was added to each sample well. The plate was sealed with a sealing film, shaken for 10 min (800 rpm/min), and then centrifuged for 15 min (4000 rpm). After the centrifugation, 50 µL of the supernatant was taken and added to a 96-well plate containing 150 µL of deionized water, and then the plate was sealed and shaken for 10 min (800 rpm) for uniform mixing. Subsequently, sample analysis was performed using liquid chromatography-tandem mass spectrometry (LC-MS/MS). […] For humans, the microsome protein-to-liver weight ratio was 45 mg/g, and the liver-to-body weight ratio was 20.7 g/kg.

[5] = system: AsPC-1 p-ERK; experiment: Cell p-ERK assay (HTRF), AsPC-1 cells; format: cell-based, human; conditions: AsPC-1 cells (KRAS G12D), 3 h incubation, read-out: AsPC-1 p-ERK IC50
In short: (§1)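 Phospho-ERK (T202/Y204) was measured by HTRF in lysates after 3 h compound treatment at 37 °C. Cells had been plated the previous day at 20000 per well for NCI-H441 and 10000 per well for AsPC-1. Four-parameter dose-response fitting of % inhibition gave IC50 values.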

[6] = system: NCI-H441 cells; experiment: 3D cell proliferation assay (CellTiter Glo-3D), NCI-H441; format: cell-based, human; conditions: NCI-H441 cells (KRAS G12V), 2% FBS, 5 days, read-out: H441 AP IC50
In short: (§2)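 IC50 values come from four-parameter fits of inhibition rate against log compound concentration, using CellTiter-Glo luminescence read after 5 days' exposure. AsPC-1 and NCI-H441 were plated at 800 cells per well in low-serum (2% FBS) medium. Compound was dosed the day after seeding, with incubation at 37 °C, 5% CO2.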

[7] = system: AsPC-1 cells; experiment: 3D cell proliferation assay (CellTiter Glo-3D), AsPC-1; format: cell-based, human; conditions: AsPC-1 cells (KRAS G12D), 3D, 2% FBS, 5 days, read-out: AsPC-1 AP IC50
In short: as §2

[8] = system: H441 p-ERK; experiment: Cell p-ERK assay (HTRF), NCI-H441 cells; format: cell-based, human; conditions: NCI-H441 cells (KRAS G12V), 3 h incubation
In short: as §1

[9] = read-out: KRAS G12V-cRAF binding assay, GPPNP-KRAS G12V, IC50 values
[10] = read-out: KRAS WT-cRAF binding assay, GPPNP-KRAS WT, IC50 values
[11] = KRAS G12V-cRAF binding assay(nM), GPPNP-KRAS G12V, IC50 values
[12] = KRAS WT-cRAF binding assay(nM), GPPNP-KRAS WT, IC50 values

Structure (SMILES): CCn1c(-c2cc(C#CCN3CCC(O)CC3)cnc2C(C)OC)c2c3cc(ccc31)-c1csc(n1)CC(NC(=O)C1C(C)C1C)C(=O)N1CCCC(N1)C(=O)OCC(C)(C)C2 (atropisomer, axis not shown; (Ra)) [Compound Z11, (1r,2R,3S)-N-((6^3S,4S,Z)-1^1-ethyl-(Ra)-1^2-(5-(3-(4-hydroxypiperidin-1-yl)prop-1-yn-1-yl)-2-((S)-1-methoxyethyl)pyridin-3-yl)-10,10-dimethyl-5,7-dioxo-6^1,6^2,6^3,6^4,6^5,6^6-hexahydro-1^1H-8-oxa-2(4,2)-thiazola-1(5,3)-indola-6(1,3)-pyridazinacycloundecaphane-4-yl)-2,3-dimethylcyclopropane-1-carboxamide]
IC50 [2, 11]: 12.3 nM
IC50 ([5]; Homo sapiens, ASPC1): 0.11 nM
IC50 ([6]; Homo sapiens, 120 h): 0.1 nM
IC50 [3, 12]: 27.7 nM
IC50 ([7]; Homo sapiens, ASPC1, 120 h): 0.15 nM
half-life at 1 µM [4]: 30.3 min
CLint scaled [4]: 52.9 mL/min/kg
IC50 ([8]; Homo sapiens): 0.21 nM

Structure (SMILES): CCn1c(-c2cc(C#CCN3CCC(C#N)(CN)CC3)cnc2[C@H](C)OC)c2c3cc(ccc31)-c1csc(n1)C[C@H](NC(=O)[C@H]1[C@@H]3COC[C@@H]31)C(=O)N1CCC[C@H](N1)C(=O)OCC(C)(C)C2 (atropisomer, axis not shown; (Ra)) [Compound Z52, (1R,5S,6r)-N-((6^3S,4S,Z)-(Ra)-1^2-(5-(3-(4-(aminomethyl)-4-cyanopiperidin-1-yl)prop-1-yn-1-yl)-2-((S)-1-methoxyethyl)-pyridin-3-yl)-1^1-ethyl-10,10-dimethyl-5,7-dioxo-6^1,6^2,6^3,6^4,6^5,6^6-hexahydro-1^1H-8-oxa-2(4,2)-thiazola-1(5,3)-indola-6(1,3)-pyridazinacycloundecaphane-4-yl)-3-oxabicyclo[3.1.0]hexane-6-carboxamide]
IC50 [2, 9]: 13.3 nM
IC50 [5]: 0.06 nM
IC50 [6]: 0.17 nM
IC50 [3, 10]: 16.5 nM
IC50 [7]: 0.08 nM
T1/2 [4]: 47.3 min
IC50 [8]: 0.13 nM

Structure (SMILES): CCn1c(-c2cc(C#CCN3CCC(C#N)CC3)cnc2C(C)OC)c2c3cc(ccc31)-c1csc(n1)CC(NC(=O)C1C3COCC31)C(=O)N1CCCC(N1)C(=O)OCC(C)(C)C2 (atropisomer, axis not shown; (Ra)) [Compound Z56, (1R,5S,6r)-N-((6^3S,4S,Z)-(Ra)-1^2-(5-(3-(4-cyanopiperidin-1-yl)prop-1-yn-1-yl)-2-((S)-1-methoxyethyl)-pyridin-3-yl)-1^1-ethyl-10,10-dimethyl-5,7-dioxo-6^1,6^2,6^3,6^4,6^5,6^6-hexahydro-1^1H-8-oxa-2(4,2)-thiazola-1(5,3)-indola-6(1,3)-pyridazinacycloundecaphane-4-yl)-3-oxabicyclo[3.1.0]hexane-6-carboxamide]
IC50 [2, 11]: 11.9 nM
IC50 ([5]; Homo sapiens, ASPC1): 0.07 nM
IC50 ([6]; Homo sapiens, 120 h): 0.14 nM
IC50 [3, 12]: 13.9 nM
IC50 ([7]; Homo sapiens, ASPC1, 120 h): 0.09 nM
half-life at 1 µM [4]: 23.3 min
CLint scaled [4]: 68.9 mL/min/kg
IC50 ([8]; Homo sapiens): 0.12 nM

Structure (SMILES): CCn1c(-c2cc(C#CCN3CCC(C#N)(CN)CC3)cnc2[C@H](C)OC)c2c3cc(ccc31)-c1coc(n1)C[C@H](NC(=O)[C@H]1[C@@H]3COC[C@@H]31)C(=O)N1CCC[C@H](N1)C(=O)OCC(C)(C)C2 (atropisomer, axis not shown; (Ra)) [Compound Z166, (1R,5S,6r)-N-((6^3S,4S,Z)-(Ra)-1^2-(5-(3-(4-(aminomethyl)-4-cyanopiperidin-1-yl)prop-1-yn-1-yl)-2-((S)-1-methoxyethyl)pyridin-3-yl)-1^1-ethyl-10,10-dimethyl-5,7-dioxo-6^1,6^2,6^3,6^4,6^5,6^6-hexahydro-1^1H-8-oxa-2(4,2)-oxazola-1(5,3)-indola-6(1,3)-pyridazinacycloundecaphane-4-yl)-3-oxabicyclo[3.1.0]hexane-6-carboxamide]
Solubility at pH 7.4 (µg/mL) ([1]; pH 7.4 medium): 26.76 µg/mL
IC50 [2, 9]: 12.9 nM
IC50 [5]: 0.1 nM
IC50 [6]: 0.37 nM
IC50 [3, 10]: 38.9 nM
IC50 [7]: 0.12 nM
T1/2 [4]: 19.6 min
IC50 [8]: 0.2 nM

Second part, the molecule after the results:

solubility at 24 h ([1]; ph 7.4 medium, pH 7.4, pH 7.4 medium): 1.5 µg/mL (≈ 1.68 µM)
IC50 [2, 9]: 10.9 nM
IC50 [3, 10]: 48.6 nM
half-life [4]: 9.8 min
CLint scaled [4]: 164 mL/min/kg
Structure (SMILES): CCn1c(-c2cc(C#CCN3CCN(C(C)=O)CC3)cnc2[C@H](C)OC)c2c3cc(ccc31)-c1csc(n1)C[C@H](NC(=O)[C@H]1[C@H](C)[C@@H]1C)C(=O)N1CCC[C@H](N1)C(=O)OCC(C)(C)C2 (atropisomer, axis not shown) [Control compound 2]

IC50 [2, 9]: 5.48 nM
IC50 [3, 10]: 14.8 nM
half-life [4]: 18.1 min
CLint scaled [4]: 88.5 mL/min/kg
Structure (SMILES): CCn1c(-c2cc(C#CCN3CCC(C#N)CC3)cnc2[C@H](C)OC)c2c3cc(ccc31)-c1csc(n1)C[C@H](NC(=O)[C@H]1[C@H](C)[C@@H]1C)C(=O)N1CCC[C@H](N1)C(=O)OCC(C)(C)C2 (atropisomer, axis not shown; (Ra)) [Compound Z282, (1r,2R,3S)-N-((6^3S,4S,Z)-1^2-(5-(3-(4-cyanopiperidin-1-yl)prop-1-yn-1-yl)-(Ra)-2-((S)-1-methoxyethyl)pyridin-3-yl)-1^1-ethyl-10,10-dimethyl-5,7-dioxo-6^1,6^2,6^3,6^4,6^5,6^6-hexahydro-1^1H-8-oxa-2(4,2)-thiazola-1(5,3)-indola-6(1,3)-pyridazinacycloundecaphan-4-yl)-2,3-dimethylcyclopropane-1-carboxamide]
